One series addresses P2Y purinoceptor 12 (Homo sapiens, UniProt Q9H244). The experiment in a line: Inhibition of P2Y12R (unknown origin) expressed in HEK293 cells assessed as restoration of cAMP reduction. The format is functional, cell-based.
For the next series, the target named is T1, P2Y purinoceptor 14 (Homo sapiens, UniProt Q15391).
T1 sequence (Q15391 whole entry): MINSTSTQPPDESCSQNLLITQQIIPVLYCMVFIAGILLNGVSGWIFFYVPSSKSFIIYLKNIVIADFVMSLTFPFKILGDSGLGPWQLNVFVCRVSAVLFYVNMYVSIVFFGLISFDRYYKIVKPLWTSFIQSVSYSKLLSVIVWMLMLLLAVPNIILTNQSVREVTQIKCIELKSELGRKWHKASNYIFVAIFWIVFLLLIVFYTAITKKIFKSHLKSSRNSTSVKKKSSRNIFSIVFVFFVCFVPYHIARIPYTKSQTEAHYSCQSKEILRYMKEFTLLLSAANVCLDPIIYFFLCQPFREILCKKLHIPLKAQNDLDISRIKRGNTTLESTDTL
The series can be described thus: Antagonist activity at P2Y14R (unknown origin) stably expressed in HEK293 cells assessed as inhibition of forskolin-induced cAMP production by cAMP-Glo assay. In kind it is functional, cell-based. A general note: Changes in cAMP serve as a functional read-out for many G protein-coupled receptors.

Series [1] in a line: Aqueous solubility of compound in SGF at pH 1.2 by spectrometry. The format is ADME. The conditions noted are these: SGF, read-out: solubility.
Series [2] is described as follows: Aqueous solubility of compound in SIF at pH 6.8 by spectrometry. The format is ADME. The conditions noted are these: simulated gi fluid.
Series [3] is described as follows: Aqueous solubility of compound in double distilled water at pH 7 by spectrometry. In kind it is physicochemical. Particulars: buffer.
Series [4] in a line: Aqueous solubility of compound in PBS at pH 7.4 by spectrometry. The format is physicochemical. The conditions noted are these: buffer.
Series [5] can be described thus: Metabolic stability in human liver microsomes measured for 90 mins. In kind it is ADME, Microsome. Particulars: 1.5 h. In general terms: Liver microsomes are a subcellular fraction often used to study metabolism.
The nature of series [6]: Half life in Sprague-Dawley rat at 1 mg/kg, iv. Particulars: in vivo. The format is ADME, organism-based.
Series [7] can be described thus: AUC (all) in Sprague-Dawley rat at 1 mg/kg, iv. The conditions noted are these: in vivo. In kind it is ADME, organism-based.
A short description of series [8]: Cmax in Sprague-Dawley rat at 5 mg/kg, po. The conditions noted are these: in vivo. In kind it is ADME, organism-based.
The nature of series [9]: Half life in Sprague-Dawley rat at 5 mg/kg, po. In kind it is ADME, organism-based. Particulars: in vivo.
A short description of series [10]: Tmax in Sprague-Dawley rat at 5 mg/kg, po. The format is ADME, organism-based. Particulars: in vivo.
Series [11] can be described thus: AUC (all) in Sprague-Dawley rat at 5 mg/kg, po. The format is ADME, organism-based. Particulars: in vivo.
Series [12] in a line: Oral bioavailability in Sprague-Dawley rat at 5 mg/kg. In kind it is ADME, organism-based. The conditions noted are these: in vivo.
The subject of series [13] is Mus musculus. The experiment in a line: Anti-colitis activity in C57BL/6 mouse model of DSS-induced colitis assessed as increase in body weight at 100 uM, REC for 7 days administered daily. The conditions noted are these: time 7.0 day. The format is functional, organism-based.
For series [14], the system named is Mus musculus. The experiment in a line: Anti-colitis activity in C57BL/6 mouse model of DSS-induced colitis assessed as increase in colon length at 100 uM, REC for 7 days administered daily. In kind it is functional, organism-based. The conditions noted are these: time 7.0 day.
Series [15] has as its system Mus musculus. The experiment in a line: Anti-colitis activity in C57BL/6 mouse model of DSS-induced colitis assessed as decrease in spleen weight index at 100 uM, REC for 7 days administered daily. In kind it is functional, organism-based. Particulars: time 7.0 day.
Series [16] deals with Mus musculus. The experiment in a line: Anti-colitis activity in C57BL/6 mouse model of DSS-induced colitis assessed as decrease in loose stools at 100 uM, REC for 7 days administered daily. The format is functional, organism-based. The conditions noted are these: time 7.0 day.
Series [17] relates to Mus musculus. The experiment in a line: Anti-colitis activity in C57BL/6 mouse model of DSS-induced colitis assessed as decrease in rectal bleeding at 100 uM, REC for 7 days administered daily. In kind it is functional, organism-based. Particulars: time 7.0 day.
The subject of series [18] is Mus musculus. The experiment in a line: Anti-colitis activity in C57BL/6 mouse model of DSS-induced colitis assessed as decrease in endoscopic damage in colon at 100 uM, REC for 7 days administered daily. The format is functional, organism-based. Particulars: time 7.0 day.
Series [19] has as its system Mus musculus. The series can be described thus: Anti-colitis activity in C57BL/6 mouse model of DSS-induced colitis assessed as decrease in histological damage in colon at 100 uM, REC for 7 days administered daily by H and E staining based analysis. In kind it is functional, organism-based. Particulars: time 7.0 day.
The test system of series [20] is Mus musculus. The experiment in a line: Anti-colitis activity in C57BL/6 mouse model of DSS-induced colitis assessed as increase in intestinal epithelial cells in colon at 100 uM, REC for 7 days administered daily by H and E staining based analysis by immunofluorescence based analysis. The conditions noted are these: time 7.0 day. The format is functional, organism-based.

Series [21] concerns the target T2, P2Y purinoceptor 14 (Homo sapiens) (UniProt Q15391).
T2 sequence (whole entry): T1 sequence (Q15391 whole entry)
The conditions noted are these: HEK293, filed as antagonist, dose 100.0 nM.
Description: Antagonist activity at P2Y14R (unknown origin) stably expressed in HEK293 cells assessed as inhibition of forskolin-induced cAMP production at 100 nM by cAMP-Glo assay relative to control

In another series the target is P2Y purinoceptor 6 (Homo sapiens, UniProt Q15077). The series can be described thus: Inhibition of P2Y6R (unknown origin) expressed in HEK293 cells assessed as decrease in IP3 reduction.
Sequence of P2Y purinoceptor 6 (Q15077 whole entry): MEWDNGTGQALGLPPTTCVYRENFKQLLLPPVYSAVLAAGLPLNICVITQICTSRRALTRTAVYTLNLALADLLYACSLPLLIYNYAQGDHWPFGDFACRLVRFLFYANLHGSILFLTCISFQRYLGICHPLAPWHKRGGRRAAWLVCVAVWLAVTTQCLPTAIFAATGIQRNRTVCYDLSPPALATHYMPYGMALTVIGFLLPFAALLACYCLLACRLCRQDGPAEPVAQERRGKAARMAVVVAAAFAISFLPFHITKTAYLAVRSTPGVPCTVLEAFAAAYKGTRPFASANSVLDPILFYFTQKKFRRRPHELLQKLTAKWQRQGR
The target of the next series is P2Y purinoceptor 4 (Homo sapiens, UniProt P51582). The experiment in a line: Inhibition of P2Y4R (unknown origin) expressed in HEK293 cells assessed as decrease in IP3 production. In kind it is functional, cell-based.
Sequence of P2Y purinoceptor 4 (P51582 whole entry): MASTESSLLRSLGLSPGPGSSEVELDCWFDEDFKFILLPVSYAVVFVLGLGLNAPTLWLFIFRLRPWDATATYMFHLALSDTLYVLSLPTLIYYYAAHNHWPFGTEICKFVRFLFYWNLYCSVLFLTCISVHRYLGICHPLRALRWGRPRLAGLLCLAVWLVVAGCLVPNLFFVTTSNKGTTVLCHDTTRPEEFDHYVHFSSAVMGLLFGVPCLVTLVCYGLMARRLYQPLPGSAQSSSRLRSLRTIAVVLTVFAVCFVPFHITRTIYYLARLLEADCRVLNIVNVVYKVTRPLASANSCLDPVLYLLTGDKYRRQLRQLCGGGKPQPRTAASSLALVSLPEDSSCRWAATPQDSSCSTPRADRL

Structures are written as SMILES. ≈ marks a conversion by molar mass, not a printed value. Calls of active or inactive are those of the source.

As a reminder, the IC50 is the concentration needed to halve the response being measured. Broadly, the solubility is the dissolved amount per volume that the medium holds. In general, half-life refers to the time needed for the level to fall by half in the phase considered. Read a low half-life as fast loss. For orientation: AUC means concentration integrated over time. Read a high AUC as high exposure. As a reminder, the Cmax is the maximum level reached in the sampled fluid or tissue. Usually Tmax stands for the time at which the peak concentration occurs. One may read the bioavailability as the share of a dose that reaches the circulation, judged against a reference dose that is usually intravenous. Lower therefore signals little systemic uptake. For orientation: inhibition means the drop in the measured response relative to a control, in per cent.

Sequence of P2Y purinoceptor 12 (Q9H244 whole entry): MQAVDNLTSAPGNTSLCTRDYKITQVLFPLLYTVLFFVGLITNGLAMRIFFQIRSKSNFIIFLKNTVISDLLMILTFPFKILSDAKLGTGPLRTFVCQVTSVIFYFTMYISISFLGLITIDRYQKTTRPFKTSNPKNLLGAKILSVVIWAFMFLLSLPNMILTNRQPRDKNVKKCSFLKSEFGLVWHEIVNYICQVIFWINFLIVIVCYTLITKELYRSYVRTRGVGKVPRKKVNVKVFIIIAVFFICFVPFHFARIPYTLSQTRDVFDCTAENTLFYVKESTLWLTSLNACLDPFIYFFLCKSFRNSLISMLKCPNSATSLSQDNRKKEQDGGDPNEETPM

Regarding `CCCSc1nc(N[C@@H]2C[C@H]2c2ccc(F)c(F)c2)c2nnn([C@@H]3C[C@H](OCCO)[C@@H](O)[C@H]3O)c2n1` [TICAGRELOR], on P2Y purinoceptor 12, the IC50 came to 1.28 µM.

Regarding `Cc1ccc(C(=O)Nc2cc(C(=O)O)sc2Oc2ccc(F)cn2)cc1`, the IC50 at P2Y purinoceptor 14 is 0.0004 µM. The solubility in series [1] was 0.051 µg/mL (≈ 0.137 µM); in series [2], 0.175 µg/mL (≈ 0.47 µM); in [3], 0.088 µg/mL (≈ 0.236 µM); in series [4], 1.995 µg/mL (≈ 5.36 µM). The Stability result in [5] was “Stable”. The half-life in series [6] came out at 21 min; in series [9], 178 min. Also, the AUC in series [7] stood at 27924 ng·min/mL; in series [11], 90744 ng·min/mL. The compound further had a Cmax in series [8] of 518 ng/mL. The Tmax in series [10] was 15 min. The compound further displayed a bioavailability in series [12] of 65%. Also, the result in the series on Mus musculus [13], in the series with Mus musculus [14], in the series with Mus musculus [15], in the series on Mus musculus [16], in the series on Mus musculus [17] and in the series with Mus musculus [18] was Active. In addition, the result in the series on Mus musculus [19] and with Mus musculus [20] was Active. Also, in series [21], the inhibition was determined as 130%.

`Cc1ccc(C(=O)Nc2cc(C(=O)O)sc2Oc2ccc(C)cn2)cc1`: the IC50 on P2Y purinoceptor 14 was determined as 0.00055 µM. Moreover, the solubility in [1] was 0.03 µg/mL (≈ 0.0814 µM); in [2] it was 0.109 µg/mL (≈ 0.296 µM); in [3], 0.039 µg/mL (≈ 0.106 µM); in series [4] it was 1.7 µg/mL (≈ 4.61 µM). For the same compound, the inhibition in [21] stood at 90.6%.

With `COc1ccc(C(=O)Nc2cc(C(=O)O)sc2Oc2ccc(C)nc2)cc1`, the IC50 at P2Y purinoceptor 14 came to 0.00129 µM. Further, the solubility was 2.26 µg/mL (≈ 5.88 µM) in [1], 0.423 µg/mL (≈ 1.1 µM) in series [2], 0.063 µg/mL (≈ 0.164 µM) in series [3] and 2.33 µg/mL (≈ 6.06 µM) in [4]. For the same compound, in [5], the Stability entry is given as “Stable”. Further, the inhibition in series [21] stood at 112%.

With `S=C=Nc1cccc(NC(=S)NCCCCNC(=S)Nc2cccc(N=C=S)c2)c1`, the IC50 on P2Y purinoceptor 6 is 0.0234 µM.

For `Cc1ccc(C(=O)Nc2cc(C(=O)O)sc2Oc2ccc(F)nc2)cc1`, the IC50 on P2Y purinoceptor 14 was determined as 0.0176 µM. The solubility in series [1] is 0.036 µg/mL (≈ 0.0967 µM); in [2], 1.202 µg/mL (≈ 3.23 µM); in series [3] it was 0.041 µg/mL (≈ 0.11 µM); in series [4] it was 3.253 µg/mL (≈ 8.74 µM). Also, in series [21], the inhibition stood at 83.4%.

As for `O=C(C1CC1)N1CCc2cc(Br)c(S(=O)(=O)Nc3ccc(C(F)(F)F)c(Cl)c3)cc21`, at P2Y purinoceptor 4, the IC50 stood at 13 µM.

The values above are taken from ChEMBL document CHEMBL5523735 (J Med Chem, 2024).
